Tests used:
[1] = test system: recombinant human NBD1 (rhNBD1); assay: Surface plasmon resonance peptide-protein interaction; format: binding
Experimental: Peptide-protein interactions were studied using a Biacore™ T100 (GE Healthcare) instrument. hrNBD1 domain or the indicated biotinylated peptides were immobilized by thiol coupling on a CMS (series S) sensor chip to a final density of 2000 resonance units (RU) or by biotin-streptavidin capture on a SA (series S) sensor chip to a final density of 250 RU, respectively. A flow cell with no immobilized protein or peptide was used as control. Binding analysis was carried out at 20° C. in a running buffer consisting of 10 mM HEPES, pH 7.4, 150 mM NaCl, 0.05% (v/v) Tween-20, 2 mM ATP, 5 mM MgCl2, 1 mM DTT applying a flow rate of 20 μl/min. For each experiment a Biacore™ method program was used. It included a series of three start up injections (running buffer), zero control (running buffer) and different concentrations of ligand. […] Each sensorgram (time-course of the surface plasmon resonance signal) was corrected for the response obtained in the control flow cell and normalized to baseline. Data were analysed using the 2.0.3 BIAevaluation software (GE Healthcare). At least three independent experiments for each analysis were performed.
FIG. 2: a, Protein-Protein docking and Molecular Dynamics of P31-43 (violet) bound to NBD1 (orange). Left side: general view of P31-43 and NBD1 interaction. Upper right: detailed interaction pattern, highlighting the most important amino acids. Lower right: in silico NBD1/P31-43 complex compared to the original crystallographic positions of Tip 401 and ATP. b, Graphical view of the in silico sampling percentage of P31-43 against NBD1/NBD2 (left 10 panel), and of P31-43/4QA (4QA) against NBD1 (right panel). c-d, Surface plasmon resonance (SPR) analysis of rhNBD1 binding to P31-43 and P57-68 biotinylated peptides immobilized on SA sensor chip (c) and of increasing concentrations of P31-43 and P57-68 peptides 15 on rhNBD1 covalently bound to the CMS sensor chip (d).

[2] = test system: PBMC collected from celiac patients; assay: Bidimensional co-culture of Caco-2 cells and PBMC from celiac patients; format: cell-based, human
Experimental: To translate our findings into the relevant clinical setting, we determined whether CFTR potentiators would prevent the HLA-restricted immune response to gliadin by peripheral blood mononuclear cells (PBMC) collected from celiac patients. PBMC collected from 6 celiac patients and 4 healthy controls, were cultured in the lower compartment of a bidimensional co-culture model in which confluent Caco-2 cells were placed in the upper compartment. Then, Caco-2 cells were challenged with PT gliadin or with a combination of P31-43 and P57-68 (or P57-68 alone as a negative control), as described, and IFN-γ and IL-10 were quantified in the supernatants from the lower compartment.
Five ml of peripheral blood have been withdrawn from 8 untreated celiac patients (females and males, age range 8-25 years) and from 3 DQ2+ positive not CD affected controls (healthy first-grade relatives of celiac patients). The Ethics Committee of ISS approved the protocol (# CE/12/341), and patients or patients' parents signed the informed consent. Peripheral blood mononuclear cells were isolated using lympholite (Cederlane, UK) density gradient overlaid by heparin blood diluted 1:1 in PBS and centrifuged (20 min at 900 rpm). After being washed three times, PBMCs were resuspended in complete RPMI 1640 supplemented with 25 mM HEPES, 10% (v/v) heat-inactivated FBS, 100 U/ml penicillin, […] streptomycin, and 1% 2 mM 1-glutamine.
For transwell experiments using polarized Caco-2 cells, 3 weeks prior to the experiment, Caco-2 cells were seeded at a density of 80×10^3 cells×cm^2 on 0.4-μm, 1-cm^2 tissue culture inserts (Costar, Corning Incorporated). Transwell cultures (12-well) with confluent Caco-2 monolayers were used for co-culture with 1 ml PBMC (1.5×10^6 cells/ml) using PBMC medium and kept in an incubator at 37° C. and 5% CO2. Cells were allowed to settle for 1 h before the starting of the experiment. The permeability of the epithelial monolayer was assessed just before the experiments, measuring the transwell electrical resistance between the upper and lower compartments. […]

Compound | interaction with rhNBD1 in the flow phase ([1]; SPR, peptide immobilized on sensor chip) | SPR signal on immobilized rhNBD1 ([1]; rhNBD1 immobilized on chip, different peptide concentrations) | effect on IFN-γ production induced by the combination of peptides ([2]; celiac PBMC / Caco-2 co-culture) | IL-10 levels ([2]; celiac PBMC / Caco-2 co-culture, p<0.01) | effect on IL-15 accumulation in the lower compartment ([2]; p<0.001 vs peptide combination)
α-gliadin peptide LGQQQPFPPQQPY (SEQ ID 1), induces an enterocyte stress response (P31-43 sequence of alpha-gliadin) | confirmed the predicted interaction | yielded a dose-dependent signal |  |  | 
CC(C)(C)c1cc(C(C)(C)C)c(NC(=O)c2c[nH]c3ccccc3c2=O)cc1O [VX-770, N-(2,4-di-tert-butyl-5-hydroxyphenyl)-4-oxo-1,4-dihydroquinoline-3-carboxamide] |  |  | prevented the production of IFN-γ | restored IL-10 levels | prevented

— patent publication US20200206198A1, “CFTR CHANNEL ACTIVATOR FOR USE IN THE TREATMENT AND/OR PREVENTION OF GLUTEN SENSITIVITY CONDITIONS” (priority 2017, published 2020)
